{
  "source": "patent EP0449009A2",
  "about": "“Use of gallopamil for the preparation of medicaments for the treatment of acute renal failure” (KNOLL AG, priority 1990, dated 1991)",
  "test_system": "Patienten, die an akutem Nierenversagen erkrankt waren",
  "experiment": "Clinical study of gallopamil infusion in patients with acute renal failure",
  "assay_type": "in vivo",
  "method": "Zum Nachweis der Wirksamkeit bei akutem Nierenversagen wurde Gallopamil 8 Patienten, die an akutem Nierenversagen erkrankt waren, über einen Zeitraum von 4 Stunden intrarenal in Dosierungen von 40 bis 160 µg/min kontinuierlich infundiert. Gleichzeitig wurde intravenös ein Diuretikum (Furosemid) in einer Konzentration von 40 µg/min über 24 Stunden verabreicht. Bei 2 weiteren Patienten wurde Gallopamil intravenös über Zeiträume von 3 und 24 Stunden in einer Menge von 40 µg/min infundiert.\nIn dieser Studie konnte bei 80 % der Patienten der deletäre Verlauf des akuten Nierenversagens gestoppt werden (siehe nachstehende Tabelle).",
  "key": {"[1]": {"conditions": "whole study: 8 patients 40 to 160 µg/min intrarenal over 4 h + Furosemid i.v., 2 patients 40 µg/min intravenous"}},
  "data": [
    {"smiles": "COc1ccc(CCN(C)CCCC(C#N)(c2cc(OC)c(OC)c(OC)c2)C(C)C)cc1OC", "note": "(stereo not drawn) [Gallopamil, 1-(3,4-Dimethoxyphenyl)-3-methylaza-7-cyan-7-(3,4,5-trimethoxyphenyl)-8-methylnonan]", "values": [
      {"measurement": "Kreatinin-Ausscheidung nach einem Behandlungstag", "setting": "patient with G-6-PD (Glukose-6-phosphatdehydrogenasemangel), treatment begun 2 weeks after onset and after two dialyses, 83 µg/min intrarenal over 4 h + Furosemid 40 µg/min i.v. over 24 h, before treatment 0,8", "result": "1,2 ml/min"},
      {"measurement": "Kreatininkonzentration im Blut nach sieben Behandlungstagen", "setting": "patient with G-6-PD (Glukose-6-phosphatdehydrogenasemangel), treatment begun 2 weeks after onset and after two dialyses, 83 µg/min intrarenal over 4 h + Furosemid 40 µg/min i.v. over 24 h, before treatment 14,1", "result": "14,6 mg/dl"},
      {"measurement": "Kreatinin-Ausscheidung nach einem Behandlungstag", "setting": "patient with Malaria, treatment begun 2 weeks after onset and after two dialyses, 50 µg/min intrarenal over 4 h + Furosemid 40 µg/min i.v. over 24 h, before treatment 2,2", "result": "3,7 ml/min"},
      {"measurement": "Kreatininkonzentration im Blut nach sieben Behandlungstagen", "setting": "patient with Malaria, treatment begun 2 weeks after onset and after two dialyses, 50 µg/min intrarenal over 4 h + Furosemid 40 µg/min i.v. over 24 h, before treatment 12,7", "result": "5,5 mg/dl"},
      {"measurement": "Kreatinin-Ausscheidung nach einem Behandlungstag", "setting": "patient with Malaria, 40 µg/min intrarenal over 4 h + Furosemid 40 µg/min i.v. over 24 h, before treatment 5,3", "result": "14,3 ml/min"},
      {"measurement": "Kreatininkonzentration im Blut nach sieben Behandlungstagen", "setting": "patient with Malaria, 40 µg/min intrarenal over 4 h + Furosemid 40 µg/min i.v. over 24 h, before treatment 10,4", "result": "3,1 mg/dl"},
      {"measurement": "Kreatininkonzentration im Blut nach sieben Behandlungstagen", "setting": "patient with Rhabdomyolysis, 40 µg/min intravenous over 3 h, before treatment 5,2", "result": "5,9 mg/dl"},
      {"measurement": "Kreatinin-Ausscheidung nach einem Behandlungstag", "setting": "patient with Rhabdomyolysis, 40 µg/min intravenous over 3 h, before treatment 8,9", "result": "3,6 ml/min"},
      {"measurement": "Kreatinin-Ausscheidung nach einem Behandlungstag", "setting": "patient with Rhabdomyolysis, 80 µg/min intrarenal over 4 h + Furosemid 40 µg/min i.v. over 24 h, before treatment 4,0", "result": "5,1 ml/min"},
      {"measurement": "Kreatininkonzentration im Blut nach sieben Behandlungstagen", "setting": "patient with Rhabdomyolysis, 80 µg/min intrarenal over 4 h + Furosemid 40 µg/min i.v. over 24 h, before treatment 10,1", "result": "9,3 mg/dl"},
      {"measurement": "Kreatininkonzentration im Blut nach sieben Behandlungstagen", "setting": "patient with Schock, 40 µg/min intravenous over 24 h, before treatment 5,5", "result": "2,9 mg/dl"},
      {"measurement": "Kreatinin-Ausscheidung nach einem Behandlungstag", "setting": "patient with Schock, 40 µg/min intravenous over 24 h, before treatment 10,4", "result": "17,9 ml/min"},
      {"measurement": "Kreatinin-Ausscheidung nach einem Behandlungstag", "setting": "patient with Schock, 83 µg/min intrarenal over 4 h + Furosemid 40 µg/min i.v. over 24 h, before treatment 3,4", "result": "13,2 ml/min"},
      {"measurement": "Kreatininkonzentration im Blut nach sieben Behandlungstagen", "setting": "patient with Schock, 83 µg/min intrarenal over 4 h + Furosemid 40 µg/min i.v. over 24 h, before treatment 4,7", "result": "1,1 mg/dl"},
      {"measurement": "Kreatinin-Ausscheidung nach einem Behandlungstag", "setting": "patient with hypovolenischer Schock, 160 µg/min intrarenal over 4 h + Furosemid 40 µg/min i.v. over 24 h, before treatment 2,3", "result": "16,1 ml/min"},
      {"measurement": "Kreatininkonzentration im Blut nach sieben Behandlungstagen", "setting": "patient with hypovolenischer Schock, 160 µg/min intrarenal over 4 h + Furosemid 40 µg/min i.v. over 24 h, before treatment 9,6", "result": "2,5 mg/dl"},
      {"measurement": "Kreatininkonzentration im Blut nach sieben Behandlungstagen", "setting": "patient with septischer Schock, 83 µg/min intrarenal over 4 h + Furosemid 40 µg/min i.v. over 24 h, before treatment 10,6", "result": "1,3 mg/dl"},
      {"measurement": "Kreatinin-Ausscheidung nach einem Behandlungstag", "setting": "patient with septischer Schock, 83 µg/min intrarenal over 4 h + Furosemid 40 µg/min i.v. over 24 h, before treatment 29,0", "result": "48,0 ml/min"},
      {"measurement": "Patienten, bei denen auf eine Dialyse verzichtet werden konnte", "setting": "[1]", "result": 90, "unit": "%"},
      {"measurement": "Patienten, bei denen der deletäre Verlauf des akuten Nierenversagens gestoppt werden konnte", "setting": "[1]", "result": 80, "unit": "%"},
      {"measurement": "Überleben des akuten Nierenversagens", "setting": "[1]", "result": "alle Patienten überlebten"}
    ]}
  ]
}
